In assay [1] the test system is ATCC27853. The experiment in a line: MIC determination, control strain. Format: cell-based.
The test system of assay [2] is MDRAB. The experiment in a line: MIC determination, microdilution broth method. It counts as cell-based, Acinetobacter baumannii.
The mark [3] stands for this setting: EA=P. clypearia 10% ethanol extract, read-out: MIC (single use).
[4] abbreviates: EA=P. clypearia water extract, read-out: MIC (single use).
The mark [5] stands for this setting: single use, EA = 60% ethanol extract, read-out: MIC.
[6] abbreviates: single use, EA = 95% ethanol extract, read-out: MIC.
The mark [7] stands for this setting: single use, 20 MDRABs, EA=10% ethanol extract.
Where [8] appears, read: single use, 20 MDRABs, EA=water extract.
[9] abbreviates: single use, 20 MDRABs, section of the 95% ethanol extract.

Values after ≈ are worked out from the molar mass of the structure shown. Where two headings read alike, the source gives them in different places.

Broadly, the MIC is the least concentration at which growth counts as inhibited. Consider `NCC[C@H](O)C(=O)N[C@@H]1C[C@H](N)[C@@H](O[C@H]2O[C@H](CN)[C@@H](O)[C@H](O)[C@H]2O)[C@H](O)[C@H]1O[C@H]1O[C@H](CO)[C@@H](O)[C@H](N)[C@H]1O` [AMK, Amikacin], for which the MIC in assay [1] (setting [3]), in assay [1] (setting [4]), in assay [1] (setting [5]) and in assay [1] (setting [6]) was 2 µg/mL (≈ 3.42 µM) throughout.

As a reminder, the MIC50 is an inhibitory concentration at the 50% level, which refers to growth in some studies and to a panel of isolates in others. The MIC90 is an inhibitory concentration at the 90% level, which refers to growth in some studies and to a panel of isolates in others. As to `CC(C)(O/N=C(\C(=O)N[C@@H]1C(=O)N2C(C(=O)[O-])=C(C[n+]3ccccc3)CS[C@H]12)c1csc(N)n1)C(=O)O` [CAZ, Ceftazidime], the minimal inhibitory concentration (MIC) in assay [1] (EA=10% ethanol extract, read-out: MIC) was found to be 4 µg/mL (≈ 7.32 µM); in assay [1] (EA=60% ethanol extract, read-out: MIC) it was 4 µg/mL (≈ 7.32 µM); in assay [1] (EA=95% ethanol extract, read-out: MIC), 4 µg/mL (≈ 7.32 µM); in assay [1] (setting [3]), 4 µg/mL (≈ 7.32 µM); in assay [1] (setting [4]), 4 µg/mL (≈ 7.32 µM); in assay [1] (EA=water extract, read-out: MIC), 4 µg/mL (≈ 7.32 µM). Further, the MIC was 4 µg/mL (≈ 7.32 µM) in assay [1] (setting [5]); 4 µg/mL (≈ 7.32 µM) in assay [1] (setting [6]); 128 µg/mL (≈ 234 µM) in assay [2] (Acinetobacter baumannii, strain A1, EA=P. clypearia 95% ethanol extract, read-out: single-use MIC); 512 µg/mL (≈ 937 µM) in assay [2] (Acinetobacter baumannii, strain A2, EA=P. clypearia 95% ethanol extract, read-out: single-use MIC); 512 µg/mL (≈ 937 µM) in assay [2] (Acinetobacter baumannii, strain A3, EA=P. clypearia 95% ethanol extract, read-out: single-use MIC); 256 µg/mL (≈ 468 µM) in assay [2] (Acinetobacter baumannii, strain A4, EA=P. clypearia 95% ethanol extract, read-out: single-use MIC). Besides, the MIC in assay [2] (Acinetobacter baumannii, strain A5, EA=60% ethanol extract, read-out: MIC) is 64 µg/mL (≈ 117 µM); in assay [2] (Acinetobacter baumannii, strain A5, EA=95% ethanol extract, read-out: MIC), 64 µg/mL (≈ 117 µM); in assay [2] (Acinetobacter baumannii, strain A5, EA=P. clypearia 95% ethanol extract, read-out: single-use MIC), 64 µg/mL (≈ 117 µM); in assay [2] (Acinetobacter baumannii, strain A5, single use, EA=10% ethanol extract, read-out: MIC) it was 64 µg/mL (≈ 117 µM); in assay [2] (Acinetobacter baumannii, strain A5, single use, EA=water extract, read-out: MIC) it was 64 µg/mL (≈ 117 µM); in assay [2] (Acinetobacter baumannii, strain A6, EA=60% ethanol extract, read-out: MIC) it was greater than 512 µg/mL. Also, the MIC is greater than 512 µg/mL in assay [2] (Acinetobacter baumannii, strain A6, EA=95% ethanol extract, read-out: MIC); 1020 µg/mL (≈ 1870 µM) in assay [2] (Acinetobacter baumannii, strain A6, EA=P. clypearia 95% ethanol extract, read-out: single-use MIC); greater than 512 µg/mL in assay [2] (Acinetobacter baumannii, strain A6, single use, EA=10% ethanol extract, read-out: MIC); greater than 512 µg/mL in assay [2] (Acinetobacter baumannii, strain A6, single use, EA=water extract, read-out: MIC); greater than 512 µg/mL in assay [2] (Acinetobacter baumannii, strain A7, EA=60% ethanol extract, read-out: MIC); greater than 512 µg/mL in assay [2] (Acinetobacter baumannii, strain A7, EA=95% ethanol extract, read-out: MIC). Besides, the minimal inhibitory concentration (MIC) in assay [2] (Acinetobacter baumannii, strain A7, EA=P. clypearia 95% ethanol extract, read-out: single-use MIC) is 1020 µg/mL (≈ 1870 µM); in assay [2] (Acinetobacter baumannii, strain A7, single use, EA=10% ethanol extract, read-out: MIC) it was greater than 512 µg/mL; in assay [2] (Acinetobacter baumannii, strain A7, single use, EA=water extract, read-out: MIC), greater than 512 µg/mL; in assay [2] (Acinetobacter baumannii, strain A8, EA=P. clypearia 95% ethanol extract, read-out: single-use MIC), 512 µg/mL (≈ 937 µM); in assay [2] (Acinetobacter baumannii, strain A9, EA=P. clypearia 95% ethanol extract, read-out: single-use MIC), 512 µg/mL (≈ 937 µM); in assay [2] (Acinetobacter baumannii, strain A10, EA=P. clypearia 95% ethanol extract, read-out: single-use MIC) it was 512 µg/mL (≈ 937 µM). Also, the MIC stood at 512 µg/mL (≈ 937 µM) in assay [2] (Acinetobacter baumannii, strain A11, EA=P. clypearia 95% ethanol extract, read-out: single-use MIC); 512 µg/mL (≈ 937 µM) in assay [2] (Acinetobacter baumannii, strain A12, EA=P. clypearia 95% ethanol extract, read-out: single-use MIC); 256 µg/mL (≈ 468 µM) in assay [2] (Acinetobacter baumannii, strain A13, EA=P. clypearia 95% ethanol extract, read-out: single-use MIC); 512 µg/mL (≈ 937 µM) in assay [2] (Acinetobacter baumannii, strain A14, EA=P. clypearia 95% ethanol extract, read-out: single-use MIC); 256 µg/mL (≈ 468 µM) in assay [2] (Acinetobacter baumannii, strain A15, EA=P. clypearia 95% ethanol extract, read-out: single-use MIC); 512 µg/mL (≈ 937 µM) in assay [2] (Acinetobacter baumannii, strain A16, EA=P. clypearia 95% ethanol extract, read-out: single-use MIC). For the same compound, the MIC came to 256 µg/mL (≈ 468 µM) in assay [2] (Acinetobacter baumannii, strain A17, EA=P. clypearia 95% ethanol extract, read-out: single-use MIC); 512 µg/mL (≈ 937 µM) in assay [2] (Acinetobacter baumannii, strain A18, EA=P. clypearia 95% ethanol extract, read-out: single-use MIC); 256 µg/mL (≈ 468 µM) in assay [2] (Acinetobacter baumannii, strain A19, EA=P. clypearia 95% ethanol extract, read-out: single-use MIC); 512 µg/mL (≈ 937 µM) in assay [2] (Acinetobacter baumannii, strain A20, EA=P. clypearia 95% ethanol extract, read-out: single-use MIC); 1024 µg/mL (≈ 1870 µM) in assay [2] (strain A6, single use, EA=10% ethanol extract); 1024 µg/mL (≈ 1870 µM) in assay [2] (strain A6, single use, EA=water extract). In addition, the MIC in assay [2] (strain A7, single use, EA=10% ethanol extract) was 1024 µg/mL (≈ 1870 µM); in assay [2] (strain A7, single use, EA=water extract) it was 1024 µg/mL (≈ 1870 µM). The MIC50 in assay [2] (Acinetobacter baumannii, single use, 20 MDRABs, section of the 60% ethanol extract, read-out: MIC50) stood at 512 µg/mL (≈ 937 µM); in assay [2] (MDRABs, EA=60% ethanol extract) it was 512 µg/mL (≈ 937 µM); in assay [2] (MDRABs, EA=95% ethanol extract), 512 µg/mL (≈ 937 µM); in assay [2] (setting [7]), 512 µg/mL (≈ 937 µM); in assay [2] (setting [8]) it was 512 µg/mL (≈ 937 µM); in assay [2] (setting [9]), 512 µg/mL (≈ 937 µM). For the same compound, the MIC90 in assay [2] (Acinetobacter baumannii, single use, 20 MDRABs, section of the 60% ethanol extract, read-out: MIC90) was determined as 512 µg/mL (≈ 937 µM); in assay [2] (MDRABs, EA=60% ethanol extract), 512 µg/mL (≈ 937 µM); in assay [2] (MDRABs, EA=95% ethanol extract) it was 512 µg/mL (≈ 937 µM); in assay [2] (setting [7]) it was 512 µg/mL (≈ 937 µM); in assay [2] (setting [8]), 512 µg/mL (≈ 937 µM); in assay [2] (setting [9]), 512 µg/mL (≈ 937 µM). The “MIC Range” value in assay [2] (MDRABs, EA=60% ethanol extract) was 64 to 512 µg/mL; in assay [2] (MDRABs, EA=95% ethanol extract), 64 to 512 µg/mL; in assay [2] (setting [7]), 64 to 512 µg/mL; in assay [2] (setting [8]), 64 to 512 µg/mL.

Regarding `CCN1CCN(C(=O)N[C@@H](C(=O)N[C@@H]2C(=O)N3C(C(=O)O)=C(CSc4nnnn4C)CS[C@H]23)c2ccc(O)cc2)C(=O)C1=O` [CFP, Cefoperazone], the MIC in assay [1] (setting [3]), in assay [1] (setting [4]), in assay [1] (setting [5]) and in assay [1] (setting [6]) was 8 µg/mL (≈ 12.4 µM) in each case.
